{"source": "patent US7531540B2", "about": "“Phthalazinone-piperidino-derivatives as PDE4 inhibitors” (Nycomed GmbH, priority 2001, dated 2009)", "note": "Where a name gives a salt, the structure may show the parent alone.", "data": [{"system": "PDE4", "assay": "Inhibition of PDE4 activity ([3H]cAMP hydrolysis, cytosol from human neutrophils)", "format": "biochemical", "conditions": "0.5 μM cAMP, Motapizone (1 μM) included to suppress PDE3 activity, 15 min at 37° C.", "protocol": "Method for Measuring Inhibition of PDE4 Activity\nPDE4 activity was determined as described by Thompson et al. (Adv Cycl Nucl Res 10: 69-92, 1979) with some modifications (Bauer and Schwabe, Naunyn-Schmiedeberg's Arch Pharmacol 311: 193-198, 1980). At a final assay volume of 200 μl (96 well microtiter plates) the assay mixture contained 20 mM Tris (pH 7.4), 5 mM MgCl2, 0.5 μM cAMP, [^3H]cAMP (about 30,000 cpm/assay), the test compound and an aliquot of cytosol from human neutrophils which mainly contains PDE4 activity as described by Schudt et al. (Naunyn-Schmiedeberg's Arch Pharmacol 344: 682-690, 1991); the PDE3-specific inhibitor Motapizone (1 μM) was included to suppress PDE3 activity originating from contaminating platelets. Serial dilutions of the compounds were prepared in DMSO and further diluted 1:100 (v/v) in the assays to obtain the desired final concentrations of the inhibitors at a DMSO concentration of 1% (v/v) which by itself only slightly affected PDE4 activity.\nAfter preincubation for 5 min at 37° C., the reaction was started by the addition of substrate (cAMP) and the assays were incubated for further 15 min at 37° C. 50 μl of 0.2 N HCl was added to stop the reaction and the assays were left on ice for about 10 min. Following incubation with 25 μg 5′-nucleotidase (Crotalus atrox snake venom) for 10 min at 37° C., the assays were loaded on QAE Sephadex A-25 (1 ml bed volume). The columns were eluted with 2 ml of 30 mM ammonium formiate (pH 6.0) and the eluate was counted for radioactivity. Results were corrected for blank values (measured in the presence of denatured protein) which were below 5% of total radioactivity. […] The IC50 -values for the compounds according to the invention for the inhibition of the PDE4 activity were determined from the concentration-inhibition curves by nonlinear-regression.\nThe inhibitory values determined for the compounds according to the invention follow from the following table A, in which the numbers of the compounds correspond to the numbers of the examples.", "values": [{"smiles": "COc1ccc(C2=NN(C3CCN(C(=O)NC(C)(C)C)CC3)C(=O)[C@@H]3CC=CC[C@H]23)cc1OC", "note": "[compound 8, 4-[(4aS,8aR)-4-(3,4-Dimethoxyphenyl)-1-oxo-4a,5,8,8a-tetrahydro-1H-phthalazin-2-yl]-piperidine-1-carboxylic acid tert-butylamide]", "Inhibition of PDE4 acitivity [measured as -logIC50 (mol/l)]": 10.18}, {"smiles": "COc1ccc(C2=NN(C3CCN(c4ncnc5sccc45)CC3)C(=O)[C@@H]3CC=CC[C@H]23)cc1OC", "note": "[compound 16, (4aS,8aR)-4-(3,4-Dimethoxyphenyl)-2-(1-thieno[2,3-d]pyrimidin-4-yl-piperidin-4-yl)-4a,5,8,8a-tetrahydro-2H-phthalazin-1-one]", "Inhibition of PDE4 acitivity [measured as -logIC50 (mol/l)]": 10.50}, {"smiles": "COc1ccc(C2=NN(C3CCN(Cc4ccc5ccc(=O)oc5c4)CC3)C(=O)[C@@H]3CC=CC[C@H]23)cc1OC.Cl", "note": "[compound 18, (4aS,8aR)-4-(3,4-Dimethoxyphenyl)-2-[1-(2-oxo-2H-chromen-7-ylmethyl)-piperidin-4-yl]-4a,5,8,8a-tetrahydro-2H-phthalazin-1-one hydrochloride]", "Inhibition of PDE4 acitivity [measured as -logIC50 (mol/l)]": 10.32}, {"smiles": "CCOc1ccc(C2=NN(C3CCN(C(=O)CN4CCOCC4)CC3)C(=O)[C@@H]3CC=CC[C@H]23)cc1OCC.Cl", "note": "[compound 25, (4aS,8aR)-4-(3,4-Diethoxyphenyl)-2-[1-(2-morpholin-4-yl-ethanoyl)-piperidin-4yl]-4a,5,8,8a-tetrahydro-2H-phthalazin-1-one hydrochloride]", "Inhibition of PDE4 acitivity [measured as -logIC50 (mol/l)]": 10.19}, {"smiles": "COc1ccc(C2=NN(C3CCN(Cc4cccnc4)CC3)C(=O)[C@@H]3CC=CC[C@H]23)cc1OC.Cl.Cl", "note": "[compound 23, (4aS,8aR)-4-(3,4-Dimethoxyphenyl)-2-(1-pyridin-3-ylmethyl-piperidin-4-yl)-4a,5,8,8a-tetrahydro-2H-phthalazin-1-one dihydrochloride]", "Inhibition of PDE4 acitivity [measured as -logIC50 (mol/l)]": 10.80}, {"smiles": "COc1ccc(C2=NN(C3CCN(CCc4ccccc4)CC3)C(=O)[C@@H]3CC=CC[C@H]23)cc1OC.Cl", "note": "[compound 21, (4aS,8aR)-4-(3,4-Dimethoxyphenyl)-2-(1-phenethyl-piperidin-4-yl)-4a,5,8,8a-tetrahydro-2H-phthalazin-1-one hydrochloride]", "Inhibition of PDE4 acitivity [measured as -logIC50 (mol/l)]": 9.69}, {"smiles": "COc1ccc(C2=NN(C3CCN(CC(=O)N4CCOCC4)CC3)C(=O)[C@@H]3CC=CC[C@H]23)cc1OC.Cl", "note": "[compound 20, (4aS,8aR)-4-(3,4-Dimethoxyphenyl)-2-[1-(2-morpholin-4-yl-2-oxo-ethyl)-piperidin-4-yl]-4a,5,8,8a-tetrahydro-2H-phthalazin-1-one hydrochloride]", "Inhibition of PDE4 acitivity [measured as -logIC50 (mol/l)]": 10.40}, {"smiles": "COc1ccc(C2=NN(C3CCN(CC(N)=O)CC3)C(=O)C3CC=CCC23)cc1OC", "note": "[compound 31, 2-{4-[(4aS,8aR)-4-(3,4-Dimethoxyphenyl)-1-oxo-4a,5,8,8a-tetrahydro-1H-phthalazin-2-yl]-piperidin-1-yl}-2H-acetamide hydrochloride]", "Inhibition of PDE4 acitivity [measured as -logIC50 (mol/l)]": 9.20}, {"smiles": "CCOc1ccc(C2=NN(C3CCN(C(=O)Nc4ccccc4)CC3)C(=O)[C@@H]3CC=CC[C@H]23)cc1OCC", "note": "[compound 7, 4-[(4aS,8aR)-4-(3,4-Diethoxyphenyl)-1-oxo-4a,5,8,8a-tetrahydro-1H-phthalazin-2-yl]-piperidine-1-carboxylic acid phenylamide]", "Inhibition of PDE4 acitivity [measured as -logIC50 (mol/l)]": 10.28}, {"smiles": "COc1ccc(C2=NN(C3CCN(S(=O)(=O)c4cccc5c(N(C)C)cccc45)CC3)C(=O)[C@@H]3CC=CC[C@H]23)cc1OC", "note": "[compound 10, (4aS,8aR)-4-(3,4-Dimethoxyphenyl)-2-[1-(5-dimethylamino-naphthalene-1-sulfonyl)-piperidin-4-yl]-4a,5,8,8a-tetrahydro-2H-phthalazin-1-one]", "Inhibition of PDE4 acitivity [measured as -logIC50 (mol/l)]": 9.57}, {"smiles": "COc1ccc(C2=NN(C3CCN(C(=O)NC(C)(C)C)CC3)C(=O)[C@H]3CC=CC[C@@H]23)c2c1OC(C)(C)C2", "note": "(relative stereo) [compound 9, (cis)-4-[4-(7-Methoxy-2,2-dimethyl-2,3-dihydro-benzofuran-4-yl)-1-oxo-4a,5,8,8a-tetrahydro-1H-phthalazin-2-yl]-piperidine-1-carboxylic acid tert-butylamide]", "Inhibition of PDE4 acitivity [measured as -logIC50 (mol/l)]": 10.65}, {"smiles": "CCOc1ccc(C2=NN(C3CCN(C(=O)N4CCOCC4)CC3)C(=O)[C@@H]3CC=CC[C@H]23)cc1OCC", "note": "[compound 22, (4aS,8aR)-4-(3,4-Diethoxyphenyl)-2-[1-(morpholine-4-carbonyl)-piperidin-4-yl]-4a,5,8,8a-tetrahydro-2H-phthalazin-1-one]", "Inhibition of PDE4 acitivity [measured as -logIC50 (mol/l)]": 9.37}, {"smiles": "COc1ccc(C2=NN(C3CCN(c4ncccn4)CC3)C(=O)[C@@H]3CC=CC[C@H]23)cc1OC", "note": "[compound 17, (4aS,8aR)-4-(3,4-Dimethoxyphenyl)-2-(1-pyrimidin-2-yl-piperidin-4-yl)-4a,5,8,8a-tetrahydro-2H-phthalazin-1-one]", "Inhibition of PDE4 acitivity [measured as -logIC50 (mol/l)]": 10.51}, {"smiles": "CCN1CCN(C(=O)N2CCC(N3N=C(c4ccc(OC)c(OC)c4)[C@H]4CC=CC[C@H]4C3=O)CC2)C(=O)C1=O", "note": "[compound 29, 1-(1-{4-[(4aS,8aR)-4-(3,4-Dimethoxyphenyl)-1-oxo-4a,5,8,8a-tetrahydro-1H-phthalazin-2-yl]-piperidin-1-yl}-methanoyl)-4-ethyl-piperazine-2,3-dione]", "Inhibition of PDE4 acitivity [measured as -logIC50 (mol/l)]": 10.87}, {"smiles": "COc1ccc(C2=NN(C3CCN(CC(=O)NC(C)C)CC3)C(=O)C3CC=CCC23)cc1OC", "note": "[compound 27, 2-{4-[(4aS,8aR)-4-(3,4-Dimethoxyphenyl)-1-oxo-4a,5,8,8a-tetrahydro-1H-phthalazin-2-yl]-piperidin-1-yl}-2H-isopropyl-acetamide]", "Inhibition of PDE4 acitivity [measured as -logIC50 (mol/l)]": 10.37}, {"smiles": "COc1ccc(C2=NN(C3CCN(Cc4ccc(-c5csnn5)cc4)CC3)C(=O)[C@@H]3CC=CC[C@H]23)cc1OC.Cl.Cl", "note": "[compound 28, (4aS,8aR)-4-(3,4-Dimethoxyphenyl)-2-[1-(4-1,2,3-thiadiazol-4-yl-benzyl)-piperidin-4-yl]-4a,5,8,8a-tetrahydro-2H-phthalazin-1-one dihydrochloride]", "Inhibition of PDE4 acitivity [measured as -logIC50 (mol/l)]": 10.24}]}, {"system": "not given", "assay": "not given", "conditions": "not given", "units": {"melting point": "°C"}, "values": [{"smiles": "COc1ccc(C2=NN(C3CCN(c4ncnc5sccc45)CC3)C(=O)[C@@H]3CC=CC[C@H]23)cc1OC", "note": "[compound 16, (4aS,8aR)-4-(3,4-Dimethoxyphenyl)-2-(1-thieno[2,3-d]pyrimidin-4-yl-piperidin-4-yl)-4a,5,8,8a-tetrahydro-2H-phthalazin-1-one]", "melting point": "219 to 220"}, {"smiles": "COc1ccc(C2=NN(C3CCN(Cc4ccc5ccc(=O)oc5c4)CC3)C(=O)[C@@H]3CC=CC[C@H]23)cc1OC.Cl", "note": "[compound 18, (4aS,8aR)-4-(3,4-Dimethoxyphenyl)-2-[1-(2-oxo-2H-chromen-7-ylmethyl)-piperidin-4-yl]-4a,5,8,8a-tetrahydro-2H-phthalazin-1-one hydrochloride]", "melting point": "264 to 267"}, {"smiles": "CCOc1ccc(C2=NN(C3CCN(C(=O)CCCC(=O)O)CC3)C(=O)[C@@H]3CC=CC[C@H]23)cc1OCC", "note": "[compound 4, 5-{4-[(4aS,8aR)-4-(3,4-Diethoxy-phenyl)-1-oxo-4a,5,8,8a-tetrahydro-1H-phthalazin-2-yl]-piperidin-1-yl}-5-oxo-pentanoic acid]", "melting point": "133 to 135"}, {"smiles": "CCOc1ccc(C2=NN(C3CCN(S(=O)(=O)c4ccc(C)cc4)CC3)C(=O)[C@@H]3CC=CC[C@H]23)cc1OCC", "note": "[compound 1, (4aS,8aR)-4-(3,4-Diethoxyphenyl)-2-[1-(toluene-4-sulfonyl)-piperidin-4-yl]-4a,5,8,8a-tetrahydro-2H-phthalazin-1-one]", "melting point": "99 to 101"}, {"smiles": "CCOc1ccc(C2=NN(C3CCN(C(=O)c4ccncc4)CC3)C(=O)[C@@H]3CC=CC[C@H]23)cc1OCC.Cl", "melting point": "66 to 68"}, {"smiles": "CCOc1ccc(C2=NN(C3CCN(C(=O)NC(C)(C)C)CC3)C(=O)[C@@H]3CC=CC[C@H]23)cc1OCC", "note": "[compound 6, 4-[(4aS,8aR)-4-(3,4-Diethoxyphenyl)-1-oxo-4a,5,8,8a-tetrahydro-1H-phthalazin-2-yl]-piperidine-1-carboxylic acid tert-butylamide]", "melting point": "145 to 148"}]}]}
